What was measured:
Format in all cases: biochemical
Pim-1 = Pim-1 (Homo sapiens (Human), UniProt P11309); assay: Pim-1 kinase assay; settings: 1 mM ATP; read-out: Pim1 IC50
Procedure: Supplementation of the STOP buffer with beads and stopping the reactions were done under reduced light. Prior to the stopping reactions STOP buffer with beads was preincubated for 1 h in the dark at room temperature. After stopping the reactions, plates were incubated for 1 h in the dark at room temperature before reading on a PHERAstar FS plate reader (BMG Labtech) under reduced light.

Pim-3 = Pim-3 (Homo sapiens (Human), UniProt Q86V86); assay: Pim-3 kinase assay; settings: 1 mM ATP; read-out: Pim3 IC50
In short: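 Human Pim-3 at 1.25 pM phosphorylated […] biotin-BAD peptide with 1 mM ATP for 1 h at 25° C, in pH 7.5 Tris buffer with 5 mM MgCl2 and 5 mM DTT. Reactions were stopped with EDTA buffer containing phospho-Bad (Ser112) antibody and AlphaScreen donor/acceptor beads. Plates were read after 1 h dark incubation at room temperature.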

Pim-2 = Pim-2 (Homo sapiens (Human), UniProt Q9P1W9); assay: Pim-2 kinase assay; settings: 1 mM ATP; read-out: Pim2 IC50
Pim-2, sequence (Q9P1W9 whole entry): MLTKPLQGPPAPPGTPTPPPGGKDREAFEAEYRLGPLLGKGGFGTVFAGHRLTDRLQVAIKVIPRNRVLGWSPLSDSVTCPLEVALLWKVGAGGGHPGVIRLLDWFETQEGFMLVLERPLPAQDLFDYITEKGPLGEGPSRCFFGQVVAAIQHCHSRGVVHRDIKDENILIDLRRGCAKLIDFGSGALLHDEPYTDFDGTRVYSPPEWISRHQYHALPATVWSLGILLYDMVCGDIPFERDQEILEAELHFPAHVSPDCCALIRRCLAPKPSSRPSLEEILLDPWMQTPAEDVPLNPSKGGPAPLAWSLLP
In short: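 Pim-2 (1 nM) with fluorescein-CREBtide ([…]) and 1 mM ATP in Tris pH 7.5, MgCl2, DTT buffer, 2 h at 25 °C. Stopped with EDTA plus Tb-anti-CREB pSer133 antibody; phosphorylation read by TR-FRET after 30 min.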

Pim-1, sequence (P11309 whole entry): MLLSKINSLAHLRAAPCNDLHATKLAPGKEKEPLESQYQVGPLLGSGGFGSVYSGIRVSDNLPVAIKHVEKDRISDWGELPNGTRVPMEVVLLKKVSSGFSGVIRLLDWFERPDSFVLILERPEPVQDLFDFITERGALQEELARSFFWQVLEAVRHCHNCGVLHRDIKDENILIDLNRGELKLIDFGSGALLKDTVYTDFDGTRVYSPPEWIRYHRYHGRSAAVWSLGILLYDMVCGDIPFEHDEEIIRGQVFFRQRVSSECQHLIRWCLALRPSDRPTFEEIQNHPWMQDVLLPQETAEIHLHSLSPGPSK

| SMILES | IC50 (Pim-1) | IC50 (Pim-3) | IC50 (Pim-2) |
| --- | --- | --- | --- |
| C[C@H]1CN(c2ccncc2NCc2ccc(F)c(-c3c(F)cc(C(C)(C)O)cc3F)n2)C[C@@H](N)[C@@H]1O [Example 106, (3R,4R,5S)-3-Amino-1-{3-[({6-[2,6-difluoro-4-(1-hydroxy-1-methylethyl)phenyl]-5-fluoropyridin-2-yl}methyl)amino]pyridin-4-yl}-5-methylpiperidin-4-ol] | < 10 nM | ≤ 10 nM | ≤ 100 nM |
| C[C@H]1CN(c2ccncc2NCc2ccc3ccc(-c4ccn(C)c(=O)c4F)cc3n2)C[C@@H](N)[C@@H]1O [Example 107, 4-{2-[({4-[(3R,4R,5S)-3-Amino-4-hydroxy-5-methylpiperidin-1-yl]pyridin-3-yl}amino)methyl]quinolin-7-yl}-3-fluoro-1-methylpyridin-2(1H)-one] | < 10 nM | ≤ 10 nM | ≤ 100 nM |
| C[C@@H]1C[C@H](N)CN(c2ccncc2NCc2nc(-c3c(F)cccc3F)c(F)cc2N)C1 [Example 108, 2-[({4-[(3S,5R)-3-Amino-5-methylpiperidin-1-yl]pyridin-3-yl}amino)methyl]-6-(2,6-difluorophenyl)-5-fluoropyridin-3-amine] | < 10 nM | ≤ 10 nM | ≤ 100 nM |
| Nc1cc(F)c(-c2c(F)cccc2F)nc1CNc1cnccc1N1C[C@@H](N)C[C@@H](C(F)(F)F)C1 [Example 109, 2-[({4-[(3S,5R)-3-Amino-5-(trifluoromethyl)piperidin-1-yl]pyridin-3-yl}amino)methyl]-6-(2,6-difluorophenyl)-5-fluoropyridin-3-amine] | < 10 nM | ≤ 10 nM | ≤ 100 nM |
| C[C@@H]1C[C@H](N)CN(c2ccnc(F)c2NCc2ccc(F)c(-c3c(F)cccc3F)n2)C1 [Example 110, 4-[(3S,5R)-3-Amino-5-methylpiperidin-1-yl]-N-{[6-(2,6-difluorophenyl)-5-fluoropyridin-2-yl]methyl}-2-fluoropyridin-3-amine] | < 10 nM | ≤ 10 nM | ≤ 100 nM |
| CC(Nc1cnccc1N1C[C@H](C)C[C@H](N)C1)c1ccc(F)c(-c2c(F)cccc2F)n1 (stereo partly drawn) [Example 111, 4-[(3S,5R)-3-Amino-5-methylpiperidin-1-yl]-N-{1-[6-(2,6-difluorophenyl)-5-fluoropyridin-2-yl]ethyl}pyridin-3-amine] | < 10 nM | ≤ 10 nM | ≤ 100 nM |

Source: patent US9802918B2, “Pyridineamine compounds useful as Pim kinase inhibitors” (Incyte Corporation, priority 2015, dated 2017)
